# Experimental data: ChEMBL document CHEMBL1201862, “PubChem BioAssay data set” (2004)
# The source made the active and inactive calls.
# How the values were obtained:
# [1] = HGIII-sPLA2 enzyme inhibition potency – biochemical, QFRET, IC50, dose response (AID 743457);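 further: green fluorescence rise as the enzyme cleaves BODIPY PC-A2 in liposomes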
# [2] = molecular target: ADP-ribosylation factor GTPase-activating protein 1 (Rattus norvegicus, UniProt Q62848); assay: Fluorescence polarization-based biochemical high throughput dose response screening assay to identify inhibitors of ADP-ribosylation factor GTPase activating protein 1 (ARFGAP1).; assay type: functional
# [3] = test system: BHK-21; assay: viability loss in BHK-21 cells – cell-based, plate reader, cherry-pick samples, cytotoxicity control, dose response (AID 687030); assay type: functional; conditions: Mesocricetus auratus
# [4] = test system: A549; assay: viability loss in A549 cells – cell-based, plate reader, cherry-pick samples, cytotoxicity control, dose response (AID 687028); assay type: functional; conditions: Homo sapiens
# [5] = Counterscreen for activators of the function of SWI/SNF related, matrix associated, actin dependent regulator of chromatin, subfamily a, member 2 (SMARCA2, BRM): Luminescence-based cell-based high throughput dose response assay to identify non-selective compounds using the VP16 reporter assay.; assay type: functional
# [6] = molecular target: SWI/SNF-related matrix-associated actin-dependent regulator of chromatin subfamily A member 2 (Homo sapiens, UniProt P51531); assay: Luminescence-based cell-based high throughput dose response assay to identify activators of the function of SWI/SNF related, matrix associated, actin dependent regulator of chromatin, subfamily a, member 2 (SMARCA2, BRM).; assay type: functional
# SWI/SNF-related matrix-associated actin-dependent regulator of chromatin subfamily A member 2, sequence (P51531 whole entry): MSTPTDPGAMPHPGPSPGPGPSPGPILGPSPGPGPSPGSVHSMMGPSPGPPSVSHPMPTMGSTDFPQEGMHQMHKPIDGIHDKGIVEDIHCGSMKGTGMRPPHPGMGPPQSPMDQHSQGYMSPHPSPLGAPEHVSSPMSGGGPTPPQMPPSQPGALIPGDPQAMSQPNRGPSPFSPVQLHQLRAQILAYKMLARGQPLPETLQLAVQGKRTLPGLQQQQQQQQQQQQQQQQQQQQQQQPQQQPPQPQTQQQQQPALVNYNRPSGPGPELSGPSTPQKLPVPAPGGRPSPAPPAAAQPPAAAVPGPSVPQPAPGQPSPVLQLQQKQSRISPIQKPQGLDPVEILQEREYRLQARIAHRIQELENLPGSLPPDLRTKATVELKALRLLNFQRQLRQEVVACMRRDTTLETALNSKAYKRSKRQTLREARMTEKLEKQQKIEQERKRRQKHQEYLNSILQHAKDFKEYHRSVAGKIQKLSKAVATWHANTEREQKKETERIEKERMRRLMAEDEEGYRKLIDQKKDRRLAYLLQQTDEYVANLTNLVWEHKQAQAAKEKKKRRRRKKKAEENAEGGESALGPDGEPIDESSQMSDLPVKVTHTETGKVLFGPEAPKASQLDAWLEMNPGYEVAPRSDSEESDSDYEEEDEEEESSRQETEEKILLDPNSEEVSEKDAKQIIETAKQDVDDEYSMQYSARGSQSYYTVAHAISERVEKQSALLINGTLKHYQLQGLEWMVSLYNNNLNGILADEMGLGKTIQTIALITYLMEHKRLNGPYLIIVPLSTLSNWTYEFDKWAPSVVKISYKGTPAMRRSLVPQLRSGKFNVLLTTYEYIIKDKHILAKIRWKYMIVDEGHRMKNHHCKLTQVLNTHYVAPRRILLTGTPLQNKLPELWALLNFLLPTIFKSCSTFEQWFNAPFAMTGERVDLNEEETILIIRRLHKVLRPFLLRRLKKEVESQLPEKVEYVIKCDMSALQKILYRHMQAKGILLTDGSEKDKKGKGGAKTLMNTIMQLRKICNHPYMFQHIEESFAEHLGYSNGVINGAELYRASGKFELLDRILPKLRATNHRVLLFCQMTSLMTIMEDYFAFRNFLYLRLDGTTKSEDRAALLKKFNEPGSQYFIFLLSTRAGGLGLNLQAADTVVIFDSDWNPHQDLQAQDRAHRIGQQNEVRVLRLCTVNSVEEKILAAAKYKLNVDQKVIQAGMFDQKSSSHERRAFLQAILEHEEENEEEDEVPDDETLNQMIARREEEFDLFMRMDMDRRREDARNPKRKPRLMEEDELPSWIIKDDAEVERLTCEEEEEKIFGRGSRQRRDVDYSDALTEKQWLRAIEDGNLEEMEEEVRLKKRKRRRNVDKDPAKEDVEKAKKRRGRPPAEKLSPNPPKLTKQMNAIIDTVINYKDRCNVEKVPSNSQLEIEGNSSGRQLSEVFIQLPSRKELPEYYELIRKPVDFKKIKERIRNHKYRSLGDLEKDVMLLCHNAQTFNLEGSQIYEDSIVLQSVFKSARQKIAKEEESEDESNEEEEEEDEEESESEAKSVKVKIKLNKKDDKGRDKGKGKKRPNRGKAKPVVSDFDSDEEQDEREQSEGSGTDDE
# [7] = nonselective StAR promoter luciferase inhibitors – cell-based, luminescence, luciferase reporter, counter-screen for LRH-1 inverse agonist project, dose response (AID 651969); assay type: functional
# [8] = molecular target: Steroidogenic factor 1 (Homo sapiens, UniProt Q13285); assay: Counterscreen for inverse agonists of the liver receptor homolog-1 (LRH-1; NR5A2): Luminescence-based cell-based high throughput dose response assay to identify inverse agonists of the Steroidogenic Factor 1 Nuclear Receptor (SF1; NR5A1).; assay type: functional
# Steroidogenic factor 1, sequence (Q13285 whole entry): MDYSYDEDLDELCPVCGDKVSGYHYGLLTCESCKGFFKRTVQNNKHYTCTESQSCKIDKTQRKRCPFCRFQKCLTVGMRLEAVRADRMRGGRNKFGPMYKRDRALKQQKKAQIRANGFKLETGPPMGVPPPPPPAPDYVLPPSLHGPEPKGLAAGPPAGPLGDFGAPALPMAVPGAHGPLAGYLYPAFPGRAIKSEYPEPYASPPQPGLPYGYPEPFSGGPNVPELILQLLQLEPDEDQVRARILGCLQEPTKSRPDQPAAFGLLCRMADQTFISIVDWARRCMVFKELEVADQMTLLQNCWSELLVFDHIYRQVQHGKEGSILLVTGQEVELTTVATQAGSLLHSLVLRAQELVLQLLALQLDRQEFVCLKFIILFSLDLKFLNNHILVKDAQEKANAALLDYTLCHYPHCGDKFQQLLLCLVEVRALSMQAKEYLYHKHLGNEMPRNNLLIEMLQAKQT
# [9] = molecular target: Nuclear receptor subfamily 5 group A member 2 (Homo sapiens, UniProt O00482); assay type: functional, cell-based;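 further: HEK293T cells transfected with LRH-1 and a StAR promoter luciferase reporter; potency for inhibitors that lower LRH-1 driven reporter light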
# [10] = test system: BJ; assay: BJ-TERT-LT-ST fibroblast viability loss – cell-based, RAS-independent, luminescence, dose response (AID 1935); assay type: functional; conditions: Homo sapiens;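 further: BJ fibroblasts immortalized with TERT plus LT and ST oncogenes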
# [11] = test system: BJ; assay: growth inhibition of engineered Ras-driven BJ cells – cell-based, alamar blue fluorescence, cherrypicked samples, dose response (AID 2631); assay type: functional; conditions: Homo sapiens;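 further: confirmatory dose-response assay in RAS-dependent BJ fibroblasts engineered with TERT, LT and ST, with cytotoxicity read by fluorescence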
# [12] = molecular target: Photoreceptor-specific nuclear receptor (Homo sapiens, UniProt Q9Y5X4); assay type: functional, cell-based;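 further: CHO-S cells with Gal4-NCOR and VP16-NR2E3 two-hybrid luciferase reporter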
# Photoreceptor-specific nuclear receptor, sequence (Q9Y5X4 whole entry, the tested form may be a part): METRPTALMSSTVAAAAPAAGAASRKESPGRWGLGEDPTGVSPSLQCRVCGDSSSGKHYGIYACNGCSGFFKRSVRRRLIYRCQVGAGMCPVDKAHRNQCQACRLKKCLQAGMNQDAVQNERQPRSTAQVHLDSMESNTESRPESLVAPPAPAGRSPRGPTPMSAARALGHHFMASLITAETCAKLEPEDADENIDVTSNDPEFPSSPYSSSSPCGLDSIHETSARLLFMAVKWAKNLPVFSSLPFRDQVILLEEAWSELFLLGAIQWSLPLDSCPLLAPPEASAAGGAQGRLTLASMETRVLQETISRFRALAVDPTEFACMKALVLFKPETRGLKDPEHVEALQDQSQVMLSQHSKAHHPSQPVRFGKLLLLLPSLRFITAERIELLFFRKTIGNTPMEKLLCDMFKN
# [13] = HEK-293T viability loss after treatment – luminescence, T-cell screen hits, cytotoxicity control for TCR NF-kB inhibitor project, dose response (AID 489026); assay type: functional, cell-based;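 further: cells exposed to compound about 14 hours before the viability readout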
# [14] = test system: BJ; assay: cells; assay type: functional, cell-based; conditions: Homo sapiens
# [15] = test system: BJ; assay: BJ-TERT fibroblast viability loss – cell-based, RAS-independent, luminescence, dose response (AID 1933); assay type: functional; conditions: Homo sapiens
# [16] = DRD fibroblast viability loss – cell-based, non-viral oncogenic, luminescence, dose response (AID 1934); assay type: functional; conditions: Homo sapiens
# [17] = molecular target: T1, Matrix metalloproteinase-14 (Homo sapiens, UniProt P50281); assay: SAR confirmation of uHTS hits for a small molecule inhibitors of MT1-MMP activation in a fluorescence assay.; assay type: functional
# [18] = molecular target: T1, Matrix metalloproteinase-14; assay: Dose Response confirmation of uHTS hits for a small molecule inhibitors of MT1-MMP activation in a fluorescence assay set 1.; assay type: functional
# [19] = molecular target: T2, ATP-dependent translocase ABCB1 (Homo sapiens, UniProt P08183); assay: P-gp JC-1 efflux blockade concentration-response – Jurkat-DNR cells, flow cytometry, set 2, dose response (AID 504569); assay type: functional; conditions: read-out: EC50_MICROM_;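 further: potency of pump inhibitors that raise cellular JC-1 green fluorescence up to the nicardipine level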
# T2 sequence (P08183 whole entry): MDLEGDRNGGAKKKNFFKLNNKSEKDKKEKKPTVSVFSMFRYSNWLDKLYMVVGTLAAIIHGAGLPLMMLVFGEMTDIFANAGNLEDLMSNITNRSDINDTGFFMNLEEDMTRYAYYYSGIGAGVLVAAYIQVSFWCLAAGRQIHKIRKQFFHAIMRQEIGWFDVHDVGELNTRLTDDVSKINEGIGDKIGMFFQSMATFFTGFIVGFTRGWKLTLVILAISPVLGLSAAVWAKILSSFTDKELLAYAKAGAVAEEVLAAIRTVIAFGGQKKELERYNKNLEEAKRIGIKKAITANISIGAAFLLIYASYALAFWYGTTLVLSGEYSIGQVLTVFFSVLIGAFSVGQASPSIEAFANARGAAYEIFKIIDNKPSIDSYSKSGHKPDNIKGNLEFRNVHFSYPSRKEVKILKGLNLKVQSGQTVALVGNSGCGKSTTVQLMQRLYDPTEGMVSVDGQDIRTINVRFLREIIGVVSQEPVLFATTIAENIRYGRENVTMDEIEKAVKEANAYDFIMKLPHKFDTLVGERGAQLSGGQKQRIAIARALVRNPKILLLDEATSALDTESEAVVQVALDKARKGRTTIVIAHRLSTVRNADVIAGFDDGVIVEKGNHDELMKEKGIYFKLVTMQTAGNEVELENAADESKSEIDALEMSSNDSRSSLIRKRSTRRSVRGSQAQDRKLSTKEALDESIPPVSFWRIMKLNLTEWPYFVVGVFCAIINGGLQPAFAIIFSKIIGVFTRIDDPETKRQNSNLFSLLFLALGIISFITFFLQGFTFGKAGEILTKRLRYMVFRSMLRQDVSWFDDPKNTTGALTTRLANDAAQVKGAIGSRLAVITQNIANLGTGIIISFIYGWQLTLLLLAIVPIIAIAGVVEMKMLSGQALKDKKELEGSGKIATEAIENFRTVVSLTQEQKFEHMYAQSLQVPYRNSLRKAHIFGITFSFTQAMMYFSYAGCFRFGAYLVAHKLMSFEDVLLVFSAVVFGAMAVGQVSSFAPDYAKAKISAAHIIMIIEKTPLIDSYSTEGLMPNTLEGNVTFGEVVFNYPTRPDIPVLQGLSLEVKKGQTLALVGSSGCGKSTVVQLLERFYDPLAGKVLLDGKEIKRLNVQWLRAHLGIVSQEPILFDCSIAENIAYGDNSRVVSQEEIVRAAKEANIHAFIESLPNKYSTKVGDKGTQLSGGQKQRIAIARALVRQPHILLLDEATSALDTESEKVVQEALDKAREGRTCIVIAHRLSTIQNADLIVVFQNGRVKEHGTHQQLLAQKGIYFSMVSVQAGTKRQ
# [20] = molecular target: T2, ATP-dependent translocase ABCB1; assay: inhibition of BCRP-mediated JC-1 efflux – Ig-MXP3 cells, flow cytometry, set 2, dose response (AID 504566); assay type: functional; conditions: read-out: EC50_MICROM_;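 further: flow cytometry median green fluorescence of retained JC-1 dye; potency of efflux pump inhibition measured as rising substrate retention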
# [21] = activation of miR-122 Renilla sensor silencing – cell-based, Huh7 psiCHECK-miR122, Renilla luciferase, cherry-picked, dose response (AID 651956); assay type: functional;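 further: huh7 hepatoma cells stably carrying a psiCHECK-2 miR-122 sensor plasmid; renilla luciferase signal reporting endogenous miR-122 activity after 48 h compound exposure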
# [22] = cells; assay type: functional, cell-based
# [23] = cells; assay type: functional, cell-based; remark: listed apart in the source
# [24] = A2780 cell killing – plate reader, dry powder samples, cytotoxicity control, dose response (AID 743046); assay type: functional, cell-based
# [25] = molecular target: Paired box protein Pax-8 (Homo sapiens, UniProt Q06710); assay: PAX8 transcriptional activity inhibition in RMG-I – RMG-I cells, luciferase, cherry-pick, dose response (AID 687027); assay type: functional, cell-based;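 further: luciferase reporter driven by Pax8 target thyroperoxidase promoter measured by SteadyGlo luminescence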
# Paired box protein Pax-8, sequence (Q06710 whole entry): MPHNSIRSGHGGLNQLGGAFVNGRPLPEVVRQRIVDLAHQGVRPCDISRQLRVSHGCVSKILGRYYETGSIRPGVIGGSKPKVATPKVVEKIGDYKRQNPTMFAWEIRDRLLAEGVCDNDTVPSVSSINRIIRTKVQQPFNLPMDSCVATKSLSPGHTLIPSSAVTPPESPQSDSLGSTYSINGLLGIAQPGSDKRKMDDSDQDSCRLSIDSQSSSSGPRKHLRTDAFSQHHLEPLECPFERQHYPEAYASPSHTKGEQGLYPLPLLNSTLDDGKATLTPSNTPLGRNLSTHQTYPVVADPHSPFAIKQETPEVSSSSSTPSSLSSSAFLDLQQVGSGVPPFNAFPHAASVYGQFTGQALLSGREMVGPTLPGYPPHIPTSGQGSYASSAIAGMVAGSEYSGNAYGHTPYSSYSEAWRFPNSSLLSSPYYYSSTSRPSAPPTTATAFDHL
# [26] = IGROV1 cell killing – plate reader, dry powder samples, PAX8 inhibitor project, dose response (AID 743043); assay type: functional, cell-based; conditions: IGROV-1
# [27] = OVCAR-3 cell viability loss – plate reader, dry powder samples, PAX8 inhibitor project, dose response (AID 743044); assay type: functional, cell-based
# [28] = OVCAR8 cell viability loss – plate reader, dry powder samples, PAX8 project, dose response (AID 743197); assay type: functional, cell-based; conditions: OVCAR-8
# [29] = cytotoxicity in HEK293 background cells – cell-based, dry powder, set 2, counter-screen for EBV LMP1 inhibitor project, dose response (AID 624374); assay type: functional
# [30] = molecular target: Protein Wnt-3a (Mus musculus, UniProt P27467); assay: SAR analysis of small molecule antagonists of Gli-SUFU in a Wnt3a luminescent reporter assay.; assay type: functional
# [31] = inhibition of bursicon-driven LGR2 cAMP signaling – cell-based, HEK293, CRE-luciferase reporter, cherry pick, dose response (AID 743342); assay type: functional
# [32] = A549 cell cytotoxicity, dose response, cytotoxicity control, plate reader, cherry-pick, antagonist series (AID 743412); assay type: functional, cell-based
# [33] = potency of ADAM10 substrate cleavage blockers – biochemical, QFRET, dose response (AID 743254);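 further: ADAM10 enzyme with the DM2 quenched FRET peptide as substrate; EDANS fluorescence gain as the protease cuts the substrate; inhibitor potency against ADAM10 proteolytic activity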
# [34] = molecular target: Disintegrin and metalloproteinase domain-containing protein 17 (Homo sapiens, UniProt P78536); assay: inhibition of ADAM17 substrate cleavage – biochemical, quenched FRET substrate, counter-screen for ADAM10 exosite inhibitor project, dose response (AID 743253)
# Disintegrin and metalloproteinase domain-containing protein 17, sequence (P78536 whole entry, the tested form may be a part): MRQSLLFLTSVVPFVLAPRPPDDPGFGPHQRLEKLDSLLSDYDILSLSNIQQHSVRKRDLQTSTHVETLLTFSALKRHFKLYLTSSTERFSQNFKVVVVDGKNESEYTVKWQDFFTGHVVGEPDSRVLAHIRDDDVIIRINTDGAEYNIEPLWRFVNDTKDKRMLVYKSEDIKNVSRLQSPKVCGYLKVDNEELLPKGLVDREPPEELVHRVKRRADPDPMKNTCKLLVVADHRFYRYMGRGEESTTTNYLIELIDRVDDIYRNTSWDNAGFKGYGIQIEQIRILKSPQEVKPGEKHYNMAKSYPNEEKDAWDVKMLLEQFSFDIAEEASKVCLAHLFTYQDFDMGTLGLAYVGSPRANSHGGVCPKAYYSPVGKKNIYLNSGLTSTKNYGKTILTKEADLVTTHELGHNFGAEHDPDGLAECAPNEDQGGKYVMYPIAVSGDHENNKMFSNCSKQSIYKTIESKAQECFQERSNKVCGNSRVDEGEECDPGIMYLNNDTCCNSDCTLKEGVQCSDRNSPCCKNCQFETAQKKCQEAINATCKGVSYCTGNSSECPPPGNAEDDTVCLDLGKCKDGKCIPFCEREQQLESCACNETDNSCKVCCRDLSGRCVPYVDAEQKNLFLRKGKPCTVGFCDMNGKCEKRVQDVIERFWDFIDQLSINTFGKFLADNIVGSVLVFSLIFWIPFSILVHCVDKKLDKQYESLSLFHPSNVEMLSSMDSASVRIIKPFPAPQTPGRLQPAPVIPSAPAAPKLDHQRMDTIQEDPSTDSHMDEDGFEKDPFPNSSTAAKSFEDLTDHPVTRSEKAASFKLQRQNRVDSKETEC
# [35] = molecular target: T3, Low molecular weight phosphotyrosine protein phosphatase (Homo sapiens, UniProt P24666); assay type: functional; conditions: read-out: IC50_Mean
# T3 sequence (P24666 whole entry): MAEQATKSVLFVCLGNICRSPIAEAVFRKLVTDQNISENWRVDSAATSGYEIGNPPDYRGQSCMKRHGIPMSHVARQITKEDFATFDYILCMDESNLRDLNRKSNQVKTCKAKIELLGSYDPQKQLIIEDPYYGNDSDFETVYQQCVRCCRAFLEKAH
# [36] = molecular target: T4, Tyrosine-protein phosphatase non-receptor type 22 (Homo sapiens, UniProt Q9Y2R2); assay: PTPN22 enzyme inhibitors – biochemical, fluorescence, LYP catalytic domain, selectivity assay for LMPTP inhibitor project, dose response (AID 652006); assay type: functional; conditions: read-out: IC50_Mean
# T4 sequence (Q9Y2R2 whole entry): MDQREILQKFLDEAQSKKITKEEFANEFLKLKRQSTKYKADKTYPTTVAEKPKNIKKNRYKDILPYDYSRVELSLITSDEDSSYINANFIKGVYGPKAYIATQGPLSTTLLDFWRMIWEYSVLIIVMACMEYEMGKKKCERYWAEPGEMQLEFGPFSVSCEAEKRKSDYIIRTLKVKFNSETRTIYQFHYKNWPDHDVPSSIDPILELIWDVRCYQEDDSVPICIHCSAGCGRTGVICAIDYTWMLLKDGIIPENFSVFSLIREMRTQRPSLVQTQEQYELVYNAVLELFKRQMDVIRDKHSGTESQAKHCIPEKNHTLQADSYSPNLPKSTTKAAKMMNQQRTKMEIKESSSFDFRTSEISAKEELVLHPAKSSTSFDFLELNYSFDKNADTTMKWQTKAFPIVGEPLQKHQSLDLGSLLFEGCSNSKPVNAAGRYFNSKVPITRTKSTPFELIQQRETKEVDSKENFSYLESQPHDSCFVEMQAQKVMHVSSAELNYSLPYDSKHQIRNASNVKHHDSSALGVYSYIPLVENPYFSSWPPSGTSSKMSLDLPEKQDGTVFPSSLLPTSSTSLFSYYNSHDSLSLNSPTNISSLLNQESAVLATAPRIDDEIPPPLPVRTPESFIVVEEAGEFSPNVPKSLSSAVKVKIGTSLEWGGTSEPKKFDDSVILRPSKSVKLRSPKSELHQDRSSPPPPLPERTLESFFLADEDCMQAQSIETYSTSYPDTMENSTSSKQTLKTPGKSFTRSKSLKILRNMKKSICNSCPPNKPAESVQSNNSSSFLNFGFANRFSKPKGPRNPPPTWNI
# [37] = molecular target: T5, Carboxy-terminal domain RNA polymerase II polypeptide A small phosphatase 1 (Homo sapiens, UniProt Q9GZU7); assay: CTDSP1 inhibitors, concentration-response, biochemical, absorbance readout, ultra-high-throughput screen actives (AID 540297); assay type: functional
# T5 sequence (Q9GZU7 whole entry): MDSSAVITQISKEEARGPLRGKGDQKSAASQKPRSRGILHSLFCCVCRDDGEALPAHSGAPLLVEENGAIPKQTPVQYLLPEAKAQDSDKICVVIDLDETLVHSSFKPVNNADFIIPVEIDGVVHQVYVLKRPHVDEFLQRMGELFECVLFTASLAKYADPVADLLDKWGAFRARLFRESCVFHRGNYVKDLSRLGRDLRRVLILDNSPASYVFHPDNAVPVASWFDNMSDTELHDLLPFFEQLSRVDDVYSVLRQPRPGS
# [38] = molecular target: T3, Low molecular weight phosphotyrosine protein phosphatase; assay type: functional; conditions: read-out: IC50_Mean; remark: listed apart in the source
smiles,measurement,setting,value
Cc1cc(C(=O)NN=C(S)Nc2cccc(C(F)(F)F)c2)nn1C,IC50,[1],> 122 µM (inactive)
Cc1ccc2nc3c(O)n(CC(=O)N4CC(C)CC(C)C4)ncc-3c2c1 (stereo not drawn),IC50,[2],133 µM (inactive)
CN(c1cccc(NC(=O)c2ccc(C(C)(C)C)cc2)c1)S(C)(=O)=O,AC50,[3],22.6 µM (active)
same,AC50,[4],23.1 µM (active)
O=C1/C(=C/c2ccco2)Cc2ccccc21,EC50,[5],> 91.1 µM (inactive)
same,EC50,[6],> 91.1 µM (inactive)
O=C(CSc1n[nH]c(-c2ccccc2)n1)Nc1ccc(F)cc1F,IC50,[7],35.9 µM (inactive)
same,IC50,[8],3.68 µM (active)
same,IC50,[9],3.99 µM (active)
Cc1cccc(NS(=O)(=O)c2ccc(-c3cnc(C4CC4)o3)cc2)c1C,EC50,[10],2.88 µM (inconclusive)
same,EC50,[11],< 104 nM (active)
same,IC50,[12],6.35 µM (active)
same,IC50,[13],67.5 µM (inactive)
same,EC50,[14],2.51 µM (active)
same,EC50,[15],2.67 µM (active)
same,EC50,[16],2.74 µM (inconclusive)
Cc1c(C(=O)OCC(=O)NCC2CCCO2)oc2ccccc12 (stereo not drawn),IC50,[17],> 80 µM (inactive)
same,IC50,[18],11.9 µM (active)
O=C(c1ccco1)N1CCN(c2cc(Cc3ccccc3)nc3cc(-c4cccc(Cl)c4)nn23)CC1,EC50,[19],4.21 µM (active)
same,EC50,[20],800 nM (active)
C[C@@H]1CN([C@H](C)CO)C(=O)c2cc(-c3cccc(C#N)c3)cnc2O[C@H]1CN(C)C(=O)C1CCC1,AC50,[21],53.7 µM (active)
CC(CNC(=O)[C@@H](Cc1ccccc1)NC(=O)[C@H]1O[C@@H](n2cnc3c(=O)[nH]c(N)nc32)[C@H](O)[C@@H]1O)c1ccccc1 (stereo partly drawn),EC50,[22],> 29.9 µM (inactive)
same,IC50,[23],> 29.9 µM (inactive)
C[C@@H]1CN([C@H](C)CO)C(=O)c2cc(NS(=O)(=O)c3ccc(Cl)cc3)ccc2O[C@@H](C)CCCCO[C@H]1CN(C)S(=O)(=O)c1ccc(Cl)cc1,AC50,[24],54.6 µM (active)
same,AC50,[25],4.76 µM (active)
same,AC50,[26],32.9 µM (active)
same,AC50,[27],15.9 µM (active)
same,AC50,[28],25.1 µM (active)
C[C@@H]1CN([C@@H](C)CO)C(=O)c2c(c3ccccc3n2C)-c2ccccc2CO[C@@H]1CN(C)C(=O)Nc1ccc(F)cc1,AbsAC35,[29],304.17 µM
O=C(Nc1cc(NCC2CCCO2)ncn1)c1ccccc1 (stereo not drawn),IC50,[30],> 21.8 µM (inactive)
COc1ccc(NC(=O)N(C)C[C@@H]2OCCCC[C@H](C)Oc3ccc(NC(=O)C4CCCCC4)cc3C(=O)N([C@H](C)CO)C[C@@H]2C)cc1,AC50,[31],2.67 µM (active)
same,AC50,[32],27.8 µM (active)
CNC(=S)N/N=C/c1cn(CCOc2ccc(OC)cc2)c2ccccc12,IC50,[33],> 69.5 µM (inactive)
same,IC50,[34],> 69.5 µM (inactive)
O=C(N/N=C/c1cccc(Br)c1)c1ccc(Br)cc1,IC50,[35],12.2 µM (active)
same,IC50,[36],41.4 µM (inactive)
same,IC50,[37],4.51 µM (active)
same,IC50,[38],39.7 µM (inactive)
